# From US4997817A, “Phyllanthostatin A” (Arizona Board of Reagents, priority 1990, dated 1991)
# Tests used:
# [1] = tested on: P388 murine lymphocytic leukemia; assay: Cell growth inhibition against P388 murine lymphocytic leukemia (in vitro PS system), NCI standard protocol; format: cell-based; conditions: Mus musculus, read-out: ED50 (P388 murine lymphocytic leukemia, in vitro PS system)
# Excerpt: Hplc-uv/vis and cell growth inhibition against the P388 murine lymphocytic leukemia (in vitro PS system) were used to guide the isolation of the lignan.
# [2] = Stability in solution at room temperature (nmr observation; MeOH solutions stored two days); format: physicochemical
# [3] = Thermal stability in DMSO-d6 (variable temperature 1H nmr); format: physicochemical; conditions: DMSO-d6, higher temperatures (FIGS. 2d,e); signals attributable to justicidin B appeared
# Method: Signals of the remaining carbons appeared as sharp single lines. These observations are explained by hindered rotation around the C-1/C-1' axis, resulting in conformational isomers. In order to provide evidence for or disprove this hypotheses, the ^1 H nmr spectra of the glycoside (shown above) were recorded in DMSO-d6 at different temperatures. Table 1 summarizes the chemical shifts observed at 25, 65, 105, 135, and 145° C. […] Room temperature (FIG. 2a) led to a complex coupling pattern that became more easily interpretable when the spectrum was recorded at 65° C. (FIG. 2b). Signals due to H-2', H-5' and H-6' broadened and disappeared when the temperature was raised (FIG. 2c). […] Other protons (not shown in FIG. 2) also appeared as single resonances at higher temperatures.
structure (smiles),measurement,setting,value
COc1cc2cc(COC(C)=O)c(C(=O)O[C@@H]3O[C@H](CO)[C@@H](O)[C@H](O)[C@H]3O)c(-c3ccc4c(c3)OCO4)c2cc1OC [Phyllanthostatin A],IC50,[1],4 µg/mL
same,justicidin B detected in stored solution,"[2]; MeOH solutions, room temperature, two days",Justicidin B was also detected in MeOH solutions of glycoside stored at room temperature for two days
same,stability in solution,[2]; in solution,unstable in solution
same,decomposition at higher temperatures,[3],gradually decomposed
